In patent publication US20230301988A1 (priority 2020, published 2023):
Residues, ends and D or L forms follow the SMILES beside them.

Assays:
[1] = molecular target: T1, cathepsin L (Homo sapiens, UniProt P07711); test: Kinetic assay for cathepsin L; type: biochemical
Protocol: (§1) For assays of cathepsin B, L, and S, cruzain inhibitors were evaluated in reaction mixtures containing a buffer of sodium acetate (pH 5.5), 1 mM CHAPS, 1 mM Na2EDTA, and 5 mM DTT at 25° C. The substrate Cbz-Phe-Arg-AMC was dissolved in 100% DMSO, as were all inhibitors, and aliquots of both substrates and inhibitors were added to 0.25 mL reaction mixtures to final concentrations of 10% DMSO (v/v). […] Cruzain inhibitors were added at seven concentrations and one fixed concentration of Cbz-Phe-Arg-AMC, and time courses of AMC formation were analyzed as with cruzain.

[2] = molecular target: cathepsin B (Homo sapiens, UniProt P07858); test: Kinetic assay for cathepsin B; type: biochemical; conditions: substrate, pH 5.5, 25° C.
[3] = molecular target: cathepsin S (Homo sapiens, UniProt P25774); test: Kinetic assay for cathepsin S; type: biochemical
cathepsin S, sequence (P25774 115-331): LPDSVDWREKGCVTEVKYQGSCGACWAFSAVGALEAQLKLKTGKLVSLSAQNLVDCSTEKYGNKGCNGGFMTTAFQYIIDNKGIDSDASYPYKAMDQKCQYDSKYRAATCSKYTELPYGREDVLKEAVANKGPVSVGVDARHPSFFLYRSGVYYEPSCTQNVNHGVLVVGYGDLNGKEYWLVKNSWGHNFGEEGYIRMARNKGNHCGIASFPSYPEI
Protocol: as §1

[4] = system: pseudovirus SARS CoV-1; conditions: cited from earlier work
[5] = system: host cells; test: Toxicity in host cells
[6] = system: Vero E6 cells; test: Bio-orthogonal labeling of protein targets in Vero E6 cells, in-gel fluorescence; type: cell-based, African green monkey; conditions: for labelling of the 24-25-kDa protein by K11777-alkyne after pre-treatment: pre-treatment 1 μM K777, 1 μM K777 alkyne, SARS-CoV-2 infected and uninfected cells
Protocol: 4N-propargyl-K11777 was added at concentrations of 1-10 µM to Vero E6 (African green monkey kidney cells), with and without infection by SARS CoV-2 viral particles at an multiplicity of infection of 0.1. […] Cells growth continued for 4 days, followed by harvest, and ˜ 20 million cells were suspended in 1 mL of lysis buffer (200 mM Tris, 4% CHAPS, 1M NaCl, 8 M Urea, pH=8) and protease inhibitor cocktail (Sigma Aldrich) at a ratio of 50:1 (v/v). Cells were lysed by sonication (ThermoFisher Scientific), with the sample on ice, with a ⅛-inch probe at 20% amplitude for 3-seconds, three times with a minute delay between pulses. The cell debris was pelleted (10,000×g for 10 minutes) followed by removal of the supernatant and determination of protein concentration by BCA assay (ThermoFisher Scientific). Labeling of the K11777-alkyne-treated cells was performed in a stepwise fashion whereby 100 mM TBTA in 1:4 DMSO: n-butanol (v/v) was added to 1 mM CuSO4 in water, followed by the addition of 20 mM Cy7-azide (Click Chemistry Tools) in DMSO, 24 μg cell lysate, and finally 2.5 mM sodium ascorbate in water. This reaction was incubated at room temperature for 1-3 hours and quenched by the addition ice-cold methanol (200 μL), chloroform (75 μL), and water (150 μL) followed by vortexing and centrifugation at 15,000 RPM at 4° C. for 15 minutes. […] Then, 4× loading dye (240 mM Tris-HCl, 8% SDS (w/v), 0.004% bromophenol blue (to avoid fluorescence from the dye), 5 mM DTT, and MilliQ water was added to a total volume of 24 μL. Samples were heated to 95° C. for 5 minutes followed by a brief centrifugation at 5,000 RPM for 1 min. The protein-standards ladder (Bio-Rad, Precision Plus Protein™ Dual Color Standards) was diluted 10,000 fold in 4% SDS buffer, loading dye, and water and loading dye 4× loading dye and water to avoid strong fluorescence from the ladder during imaging. Samples were analyzed on a 12% Bis-Tris Nu-PAGE gel (Invitrogen). […] Densitometry of in gel fluorescence was conducted using ImageJ. The gels were also analyzed by Coomassie Brilliant Blue R-250 staining (Bio-Rad).

[7] = molecular target: cruzain (Trypanosoma cruzi, UniProt P25779); test: Cruzain inactivation; type: biochemical
cruzain, sequence (P25779 123-337): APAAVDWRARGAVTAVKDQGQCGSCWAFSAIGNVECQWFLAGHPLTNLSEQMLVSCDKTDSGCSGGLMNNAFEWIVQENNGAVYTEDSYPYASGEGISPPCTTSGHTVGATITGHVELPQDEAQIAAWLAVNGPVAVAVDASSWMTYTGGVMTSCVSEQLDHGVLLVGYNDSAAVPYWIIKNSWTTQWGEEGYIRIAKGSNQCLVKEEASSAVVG

[8] = molecular target: T1, cathepsin L; test: Proteolysis of SARS CoV-2 Spike protein by cathepsin L; type: biochemical; conditions: pH 5.5
[9] = system: Vero E6 cells; test: Azide enrichment and proteomic analysis of K11777-alkyne treated Vero E6 cells; type: cell-based, African green monkey
Protocol: Cell lysates of Vero E6 cells were prepared as described above. Enrichment of alkyne-modified proteins was conducted using the Click-&-Go Protein Enrichment Kit (Click Chemistry Tools) and the protocols thereof. Proteolysis of the resin-bound, enriched proteins, which had been reduced with DTT and alkylated with iodoacetamide, was conducted by addition of 1 μg of Trypsin Gold (Promega) at 37° C. overnight with gentle agitation. The digested peptides were then eluted from the column and subjected to desalting using Pierce™ C18 Tips, 100 μL bed (Thermo Fisher Scientific). The desalted peptides were concentrated to dryness via speed vacuum centrifugation, and suspended in 25 mM ammonium bicarbonate. […]
Data were processed using MaxQuant 1.6.14. Label-free quantification was enabled at the default parameters. […] MaxQuant result files were analyzed using Perseus 1.6.14. Reverse hits, potential contaminant hits, hits only identified by site and hits for which only one peptide was detected were removed. Only proteins which were not detected in the control were considered. […] Finally, proteins which were detected in at least two test samples were clustered based on highest to lowest intensity in the 5 μM and 10 μM treated columns at default parameters (column clustering was disabled) and plotted as a heat map.

T1 sequence (P07711 114-333): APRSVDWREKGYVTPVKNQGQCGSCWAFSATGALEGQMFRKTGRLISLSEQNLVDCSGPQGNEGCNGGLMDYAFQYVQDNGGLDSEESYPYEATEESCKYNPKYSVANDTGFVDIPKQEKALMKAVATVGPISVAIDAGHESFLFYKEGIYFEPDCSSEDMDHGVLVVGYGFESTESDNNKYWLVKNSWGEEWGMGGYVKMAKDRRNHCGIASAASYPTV

Cc1cc(=O)oc2cc(NC(=O)[C@H](CCCN=C(N)N)NC(=O)[C@H](Cc3ccccc3)NC(=O)OCc3ccccc3)ccc12 [Cbz-Phe-Arg-AMC, reference compound] (HELM PEPTIDE1{[O=C(OCc1ccccc1)[*:2]].F.R.[Cc1cc(=O)oc2cc(N[*:1])ccc12]}$$$$V2.0)
Michaelis constant ([1]; substrate, pH 5.5, 25° C.): 2.9 µM | Michaelis constant [2]: 150 µM | Michaelis constant ([3]; substrate, pH 5.5, 25° C.): 60 µM

CN1CCN(C(=O)N[C@@H](Cc2ccccc2)C(=O)N[C@H](/C=C/S(=O)(=O)c2ccccc2)CCc2ccccc2)CC1 [K11777, 4-methyl-N-((S)-1-oxo-3-phenyl-1-(((S,E)-5-phenyl-1-(phenylsulfonyl)pent-1-en-3-yl)amino)propan-2-yl)piperazine-1-carboxamide]
inactivation of cathepsin L [1]: exceptionally potent, covalent inactivator | infection of Vero, A549 and other mammalian cells by pseudovirus SARS CoV-1 [4]: exceptionally potent inhibitor | toxicity in host cells [5]: No toxicity | labelling of the 24-25-kDa protein by K11777-alkyne after pre-treatment [6]: prevented labelling | labelling of the 24-25-kDa protein by K11777-alkyne after pre-treatment ([6]; listed as K777): blocked | inactivation of cathepsin S [3]: exceptionally potent, covalent inactivator | inactivation of cruzain [7]: exceptionally potent, covalent inactivator | cathepsin L-catalyzed proteolysis of SARS CoV-2 Spike protein [8]: blocked | cathepsin L-catalyzed proteolysis of SARS CoV-2 Spike protein ([8]; listed as K777): inhibited

C#CCN1CCN(C(=O)N[C@@H](Cc2ccccc2)C(=O)N[C@H](/C=C/S(=O)(=O)c2ccccc2)CCc2ccccc2)CC1 [N4-Propargyl-K11777, N-((S)-1-oxo-3-phenyl-1-(((S,E)-5-phenyl-1-(phenylsulfonyl)pent-1-en-3-yl)amino)propan-2-yl)-4-(prop-2-yn-1-yl)piperazine-1-carboxamide]
proteins labeled in Vero E6 cells ([6]; infected and un-infected with CoV-2, Cy7 azide): labels only cellular proteins of an apparent molecular weight of 24-25 kDa | most enriched labeled proteins (bead capture, mass spectrometry) ([9]; listed as K777 alkyne): cathepsins B and L are strongly enriched | most enriched labeled proteins (bead capture, mass spectrometry) ([9]; listed as N4-propargyl analogue of K11777): cathepsins L and B
